Molecular target: T1, recombinant GSK3β enzyme (human GSK3β) (Homo sapiens, UniProt P49841)
T1 construct: FLAG (N); made in house; host or cells: Sf-21 insect cells, recombinant baculovirus (pFASTBAC1 / BAC-TO-BAC)
Test: Measurement of GSK3β inhibitory activity
Assay type: biochemical
Details: glycogen synthase peptide substrate, Kinase Glo luminescence, read-out: IC50 (concentration of test compound needed for 50% inhibition of luminescent intensity), GSK3β inhibitory activity
Source text: Human GSK3β gene was cloned by a PCR method using a primer set:
prepared using human brain cDNA (Clontech; trade name: QUICK-Clone cDNA) as a template and in reference to the base sequence of GSK3β gene registered in GenBank under Accession Number NM_002093.
PCR was done according to the protocol attached to KOD plus DNA polymerase (Toyo Boseki Kabushiki Kaisha). The obtained PCR product was electrophoresed on agarose gel (1%), and 1.2 kb of DNA fragment including GSK3β gene was collected from the gel and then digested with restriction enzymes EcoR I and Sal I. The restriction enzyme-treated DNA was electrophoresed on agarose gel (1%). The obtained DNA fragment was collected, and ligated to the plasmid pFASTBAC1 (Invitrogen), which had been digested with restriction enzyme EcoR I and Sal I, to produce expression plasmid pFB-GSK3B. The base sequence of insertion fragment was confirmed to find that it corresponded to the objective sequence. In addition, virus stock BAC-GSK3B of recombinant Baculovirus was prepared using BAC-TO-BAC Baculovirus Expression System (Invitrogen).
Sf-21 cells (Invitrogen) were seeded on Sf-900 II SFM medium (Invitrogen)(150 ml) containing 10% fetal calf serum at 1×10^6 cells/ml, and cultured at 27° C. for 24 hr. The virus stock […] obtained above of recombinant Baculovirus was added by 150 μl to the obtained culture medium, and the cells were cultured for another 60 hr. The culture medium was centrifuged (3000 rpm, 10 min) to separate the cells, and the cells were washed once with PBS. The cells were suspended in 10 ml of cell lysis buffer (25 mM HEPES (pH 7.5), 1% Triton X, 130 mM sodium chloride, 1 mM EDTA, 1 mM Dithiothreitol, 25 mM β-glycerophosphate, Protease inhibitor Complete (Boehringer), 1 mM Sodium orthovanadate), treated 4 times using a homogenizer (POLYTRON) at 20000 rpm for 30 sec to disrupt the cells. The disrupted solution of cells was centrifuged (40000 rpm, 45 min.), and GSK3β was purified from the obtained supernatant using Anti-FLAG M2 Affinity Gel (Sigma Ltd.).
10 μl of ATP solution (2.5 μM ATP) was added to the obtained mixture, and the mixture was reacted at room temperature for 30 min. Kinase Glo Reagent (Promega) (50 μl) was added to the reaction solution to stop the reaction. After reaction at room temperature for 10 min, the luminescent intensity was measured using ARVO multilabel counter (PerkinElmer Life Sciences). The concentrations of the test compounds needed for 50% inhibition of luminescent intensity (IC50 value) were calculated by PRISM 3.0 (GraphPad Software).

T1 sequence (P49841 whole entry): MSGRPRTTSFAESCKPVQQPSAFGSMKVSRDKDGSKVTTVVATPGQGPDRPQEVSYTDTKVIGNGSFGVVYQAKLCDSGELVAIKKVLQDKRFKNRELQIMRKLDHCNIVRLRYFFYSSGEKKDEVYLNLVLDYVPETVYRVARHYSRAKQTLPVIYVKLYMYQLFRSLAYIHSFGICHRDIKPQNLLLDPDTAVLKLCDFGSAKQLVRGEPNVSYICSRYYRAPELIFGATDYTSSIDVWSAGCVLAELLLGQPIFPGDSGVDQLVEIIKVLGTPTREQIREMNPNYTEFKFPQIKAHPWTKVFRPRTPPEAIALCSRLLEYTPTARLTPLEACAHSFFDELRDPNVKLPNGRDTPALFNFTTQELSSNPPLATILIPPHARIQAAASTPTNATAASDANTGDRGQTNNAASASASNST

| SMILES | IC50 |
| --- | --- |
| O=C(COc1ccccc1)Nc1c[nH]nc1C(=O)NCc1ccccc1 [Example 101, N-benzyl-4-[(phenoxyacetyl)amino]-1H-pyrazole-3-carboxamide] | < 100 nM |
| O=C(NCc1ccccc1)c1n[nH]cc1NC(=O)C1CCCCC1 [Example 102, N-benzyl-4-[(cyclohexylcarbonyl)amino]-1H-pyrazole-3-carboxamide] | < 100 nM |
| CCOCC(=O)Nc1c[nH]nc1C(=O)NCc1ccccc1 [Example 103, N-benzyl-4-[(ethoxyacetyl)amino]-1H-pyrazole-3-carboxamide] | < 100 nM |
| O=C(/C=C/c1ccccc1)Nc1c[nH]nc1C(=O)NCc1ccccc1 [Example 105, N-benzyl-4-{[(2E)-3-phenylprop-2-enoyl]amino}-1H-pyrazole-3-carboxamide] | 273 nM |
| O=C(CCc1ccccc1)Nc1c[nH]nc1C(=O)NCc1ccccc1 [Example 106, N-benyzl-4-[(3-phenylpropanoyl)amino]-1H-pyrazole-3-carboxamide] | 242 nM |
| O=C(Nc1c[nH]nc1C(=O)NCc1ccccc1)c1ccccc1 [Example 109, 4-(benzoylamino)-N-benzyl-1H-pyrazole-3-carboxamide] | < 100 nM |
| COc1ccc(C(=O)Nc2c[nH]nc2C(=O)NCc2ccccc2)cc1 [Example 112, N-benzyl-4-[(4-methoxybenzoyl)amino]-1H-pyrazole-3-carboxamide] | < 100 nM |
| O=C(Nc1c[nH]nc1C(=O)NCc1ccccc1)c1ccc(F)cc1F [Example 113, N-benzyl-4-[(2,4-difluorobenzoyl)amino]-1H-pyrazole-3-carboxamide] | < 100 nM |
| O=C(Nc1c[nH]nc1C(=O)NCc1ccccc1)c1ccc(Oc2ccccc2)cc1 [Example 114, N-benzyl-4-[(4-phenoxybenzoyl)amino]-1H-pyrazole-3-carboxamide] | 394 nM |
| CC(=O)Nc1cccc(C(=O)Nc2c[nH]nc2C(=O)NCc2ccccc2)c1 [Example 116, 4-{[3-(acetylamino)benzoyl]amino}-N-benzyl-1H-pyrazole-3-carboxamide] | < 100 nM |
| O=C(Nc1c[nH]nc1C(=O)NCc1ccccc1)c1ccc(OC(F)(F)F)cc1 [Example 117, N-benzyl-4-{[4-(trifluoromethoxy)benzoyl]-amino}-1H-pyrazole-3-carboxamide] | 157 nM |
| O=C(Nc1c[nH]nc1C(=O)NCc1ccccc1)c1cnccn1 [Example 119, N-{3-[(benzylamino)carbonyl]-1H-pyrazol-4-yl}pyrazine-2-carboxamide] | < 100 nM |
| CC(=O)Nc1c[nH]nc1C(=O)NCCc1ccccc1 [Example 120, 4-acetylamino-N-(2-phenylethyl)-1H-pyrazole-3-carboxamide] | < 100 nM |
| O=C(CC1CCCC1)Nc1c[nH]nc1C(=O)NCCc1ccccc1 [Example 121, 4-[(cyclopentylacetyl)amino]-N-(2-phenylethyl)-1H-pyrazole-3-carboxamide] | < 100 nM |
| O=C(COc1ccccc1)Nc1c[nH]nc1C(=O)NCCc1ccccc1 [Example 123, 4-[(phenoxyacetyl)amino]-N-(2-phenylethyl)-1H-pyrazole-3-carboxamide] | < 100 nM |
| O=C(NCCc1ccccc1)c1n[nH]cc1NC(=O)C1CCCCC1 [Example 124, 4-[(cyclohexylcarbonyl)amino]-N-(2-phenylethyl)-1H-pyrazole-3-carboxamide] | < 100 nM |
| CCOCC(=O)Nc1c[nH]nc1C(=O)NCCc1ccccc1 [Example 125, 4-[(ethoxyacetyl)amino]-N-(2-phenylethyl)-1H-pyrazole-3-carboxamide] | < 100 nM |

| SMILES | IC50 |
| --- | --- |
| O=C(/C=C/c1ccccc1)Nc1c[nH]nc1C(=O)NCCc1ccccc1 [Example 127, N-(2-phenylethyl)-4-{[(2E)-3-phenylprop-2-enoyl]amino}-1H-pyrazole-3-carboxamide] | < 100 nM |
| O=C(CCc1ccccc1)Nc1c[nH]nc1C(=O)NCCc1ccccc1 [Example 128, N-(2-phenylethyl)-4-[(3-phenylpropanoyl)amino]-1H-pyrazole-3-carboxamide] | < 100 nM |
| COc1ccccc1CC(=O)Nc1c[nH]nc1C(=O)NCCc1ccccc1 [Example 129, 4-{[(2-methoxyphenyl)acetyl]amino}-N-(2-phenylethyl)-1H-pyrazole-3-carboxamide] | 157 nM |
| O=C(Cc1c[nH]c2ccccc12)Nc1c[nH]nc1C(=O)NCCc1ccccc1 [Example 130, 4-[(1H-indol-3-ylacetyl)amino]-N-(2-phenylethyl)-1H-pyrazole-3-carboxamide] | 128 nM |
| O=C(Nc1c[nH]nc1C(=O)NCCc1ccccc1)c1ccccc1 [Example 131, 4-benzoylamino-N-(2-phenylethyl)-1H-pyrazole-3-carboxamide] | < 100 nM |
| O=C(Nc1c[nH]nc1C(=O)NCCc1ccccc1)c1ccc(C(F)(F)F)cc1 [Example 132, N-(2-phenylethyl)-4-{[4-(trifluoromethyl)ben-zoyl]-amino}-1H-pyrazole-3-carboxamide] | 101 nM |
| COc1ccc(C(=O)Nc2c[nH]nc2C(=O)NCCc2ccccc2)cc1 [Example 133, 4-[(4-methoxybenoyl)amino]-N-(2-phenylethyl)-1H-pyrazole-3-carboxamide] | < 100 nM |
| O=C(Nc1c[nH]nc1C(=O)NCCc1ccccc1)c1ccc(F)cc1F [Example 134, 4-[(2,4-difluorobenzoyl)amino]-N-(2-phenylethyl)-1H-pyrazole-3-carboxamide] | < 100 nM |
| O=C(Nc1c[nH]nc1C(=O)NCCc1ccccc1)c1ccc(Oc2ccccc2)cc1 [Example 135, 4-[(4-phenoxybenzoyl)amino]-N-(2-phenylethyl)-1H-pyrazole-3-carboxamide] | < 100 nM |
| CCCN(CCC)S(=O)(=O)c1ccc(C(=O)Nc2c[nH]nc2C(=O)NCCc2ccccc2)cc1 [Example 136, 4-({4-[(dipropylamino)sulfonyl]benzoyl}amino)-N-(2-phenylethyl)-1H-pyrazole-3-carboxamide] | 485 nM |
| CC(=O)Nc1cccc(C(=O)Nc2c[nH]nc2C(=O)NCCc2ccccc2)c1 [Example 137, 4-{[3-(acetylamino)benzoyl]amino}-N-(2-phenylethyl)-1H-pyrazole-3-carboxamide] | < 100 nM |
| O=C(Nc1c[nH]nc1C(=O)NCCc1ccccc1)c1ccc(OC(F)(F)F)cc1 [Example 138, N-(2-phenylethyl)-4-{[4-(trifluoromethoxy)-benzoyl]amino}-1H-pyrazole-3-carboxamide] | < 100 nM |
| O=C(Nc1c[nH]nc1C(=O)NCCc1ccccc1)c1cnccn1 [Example 141] | < 100 nM |
| O=C(CC1CCCC1)Nc1c[nH]nc1C(=O)NCc1ccco1 [Example 143, 4-[(cyclopentylacetyl)amino]-N-(2-furylmethyl)-1H-pyrazole-3-carboxamide] | 155 nM |
| O=C(COc1ccccc1)Nc1c[nH]nc1C(=O)NCc1ccco1 [Example 145, N-(2-furylmethyl)-4-[(phenoxyacetyl)amino]-1H-pyrazole-3-carboxamide] | < 100 nM |
| CCOCC(=O)Nc1c[nH]nc1C(=O)NCc1ccco1 [Example 147, 4-[(ethoxyacetyl)amino]-N-(2-furylmethyl)-1H-pyrazole-3-carboxamide] | < 100 nM |
| O=C(/C=C/c1ccccc1)Nc1c[nH]nc1C(=O)NCc1ccco1 [Example 148, N-(2-furylmethyl)-4-{[(2E)-3-phenylprop-2-enoyl]amino}-1H-pyrazole-3-carboxamide] | 388 nM |

Source: patent publication US20090156582A1, “Pyrazole Compound” (priority 2005, published 2009)
